# Paper PMC8956739, “A synthetic lipopeptide targeting top-priority multidrug-resistant Gram-negative pathogens” (Nature Communications, 2022)
# Values joined by “and” are separate entries in the source; they are usually repeats but may differ in a detail not shown here. Equal entries are not always repeated. Where two headings read alike, the source gives them in different places. Residues, ends and D or L forms follow the SMILES beside them.
# Tests used:
# [1] = tested on: P. aeruginosa ATCC 27853; assay: Neutropenic mouse bloodstream infection model; format: in vivo; details: single IV dose 4 mg/kg; for Log10 CFU/mL blood at 4 h, Mean / Δlog10 CFU/mL blood (mean) / Log10 CFU/mL blood at 4 h, single mouse: 4 h; for Δlog10 CFU/mL blood (mean): treated minus control, mean of replicates; for Delta Log10 CFU/mL blood at 4 h, single mouse: treated mouse minus mean of vehicle mice
# How it was run: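 Female Swiss mice made neutropenic with cyclophosphamide (150 mg/kg day −4, 100 mg/kg day −1), infected IV with 50 µL of 4 × 10^8 CFU/mL. Lipopeptide 4 mg/kg (free base) IV at 2 h post-inoculation, n = 3. Efficacy = Δlog10 CFU/mL blood versus saline at 4 h post-dose.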
# [2] = tested on: P. aeruginosa ATCC 27853; format: cell-based, Pseudomonas aeruginosa
# How it was run: (§1)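 MICs were determined by broth microdilution in cation-adjusted Mueller–Hinton broth (CaMHB), with clinical isolates tested alongside ATCC strains.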
# [3] = tested on: P. aeruginosa FADDI-PA038; format: cell-based, Pseudomonas aeruginosa
# How it was run: (§2)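 Compounds were serially diluted in CaMHB, bacteria were added, and the lowest inhibitory concentration was recorded after broth microdilution testing.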
# [4] = tested on: P. aeruginosa FADDI-PA025; format: cell-based, Pseudomonas aeruginosa
# How it was run: as §2
# [5] = tested on: Swiss mice, kidney; assay: Nephrotoxicity in mice (kidney histopathology); format: in vivo, mouse; details: for Kidney histopathology (SQS Score): 72 mg/kg/d subcutaneously in six divided doses every 2 h, n = 3; for Kidney histopathology, mice with the SQS score: mouse, in vivo
# How it was run: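 Female Swiss mice (7-week-old, 22–28 g) received lipopeptides in saline either s.c. at 12 mg/kg ×6 every 2 h (total 72 mg/kg, n = 3) or i.p. at 20 or 25 mg/kg ×6 every 2 h (total 120 mg/kg, n = 6; 150 mg/kg, n = 3). Right kidney collected 20 h after last dose, fixed in 10% buffered formalin (pH 7.4), histology scored blinded.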
# [6] = Acute toxicity in mice (maximum tolerated dose, IV bolus); format: in vivo, mouse; details: mouse, in vivo, iv, single IV bolus dose, replicates 1-4; read-out: MTD, single replicate
# Procedure: (§3) Lipopeptide solutions were prepared in 0.9% saline and stored at 4 °C before use. Swiss mice (female, 7-week-old, 22–28 g) were used in the study. A mouse was administered an intravenous bolus of the lipopeptide (mg/kg free base) through a lateral tail vein (≤0.1 mL). After the injection, the mouse was released back into the cage and monitored for clinical signs of toxicity from 0 to 24 h after injection as follows: every 10 min in the first 2 h, every half hour from 2 to 4 h, every hour from 4 to 12 h, and every 2 h from 12 to 24 h.
# [7] = tested on: Swiss mice; assay: as above; format: in vivo, mouse; details: replicates 1-4
# Procedure: as §3
# [8] = tested on: K. pneumoniae FADDI-KP065; format: cell-based, Klebsiella pneumoniae
# How it was run: as §2
# [9] = tested on: K. pneumoniae FADDI-KP032; format: cell-based, Klebsiella pneumoniae
# How it was run: as §2
# [10] = tested on: A. baumannii FADDI-AB030; format: cell-based, Acinetobacter baumannii
# How it was run: as §2
# [11] = tested on: A. baumannii FADDI-AB034; format: cell-based, Acinetobacter baumannii
# How it was run: as §2
# [12] = tested on: A. baumannii ATCC 19606; format: cell-based, Acinetobacter baumannii
# How it was run: as §1
# [13] = Distribution, accumulation and metabolism in mouse kidneys (ME-SALDI-MS imaging, histology); format: in vivo; details: 10 μmol/kg SC; for kidney histology, SQS scores: 6 doses Day 1 and 3 doses Day 2; for level at time molar: female, Swiss, mouse, in vivo, 10 umol/kg, 6 doses Day 1 and 3 doses Day 2, 2 h after last dose, read-out: Concentration in the kidney cortex region
# Procedure: At 2 h after the last dose on Day 2, mice were rapidly euthanized. The left kidney was collected, flash-frozen in liquid nitrogen, and stored at -80 C for MS imaging analysis. The right kidney was fixed in 10% formalin for histological examination (Histopathology and Organ Pathology Unit at the University of Melbourne). The level of histological damage to the kidneys was graded as previously described. […] A total of 1 μL was spotted onto electrochemically etched, porous-silicon semiconductor substrates for desorption/ionization on silicon (DIOS)[39]. […] For lipopeptide distribution in mouse kidneys, serially sectioned 8-μm frozen slices of the kidney were loaded onto DIOS substrates and coated with a thin layer of α-CHCA using a matrix sprayer (TM-Sprayer, HTX) for MSI analysis. […] Mounted tissue was scanned for imaging alignment (Epson Perfection […]) and calibrated as previously described. Resulting polymyxin maps were visualized and normalized against the total ion current (TIC) of each section using IonView software (Shimadzu). Lipopeptide accumulation in mouse kidneys was determined by simultaneous […] analysis of kidney tissue from treated animals and serial dilutions of the drug deposited on control kidney tissue. […] The signal intensities were compared to the corresponding concentration standard curve to calculate the concentration of lipopeptide present. Putative metabolites in the kidneys treated with lipopeptides were identified by […]. Control kidney sections were used to differentiate lipopeptide metabolites from endogenous metabolites and MS/MS data from lipopeptide standards were used to differentiate lipopeptide metabolites from the parent ion generated via CID processed in the acquisition software (MALDI Solutions, Shimadzu). Levels of accumulated lipopeptide metabolites were determined by normalization to the parent ion in MSI data.
SMILES,"Log10 CFU/mL blood at 4 h, Mean [1]","Log10 CFU/mL blood at 4 h, single mouse ([1]; 4 mg/kg)","Delta Log10 CFU/mL blood at 4 h, single mouse ([1]; 4 mg/kg)",MIC P. aeruginosa ATCC 27853 ([2]; ATCC 27853),MIC P. aeruginosa FADDI-PA038 ([3]; FADDI-PA038),MIC P. aeruginosa FADDI-PA025 ([4]; FADDI-PA025),Kidney histopathology (SQS Score) [5],"Kidney histopathology, mice with the SQS score [5]",MTD [6],"MTD, single replicate [7]",MIC K. pneumoniae FADDI-KP065 ([8]; FADDI-KP065),MIC K. pneumoniae FADDI-KP032 ([9]; FADDI-KP032),MIC A. baumannii FADDI-AB030 ([10]; FADDI-AB030),MIC A. baumannii FADDI-AB034 ([11]; FADDI-AB034),MIC A. baumannii ATCC 19606 ([12]; ATCC 19606),Δlog10 CFU/mL blood (mean) ([1]; 4 mg/kg),"kidney histology, SQS scores [13]",level at time molar [13],also measured
"CCCCCC(=O)N[C@@H](CCN)C(=O)N[C@H](C(=O)N[C@@H](CN)C(=O)N[C@H]1CCNC(=O)[C@H]([C@@H](C)O)NC(=O)[C@H](CCN)NC(=O)[C@H](CCN)NC(=O)[C@H](CC)NC(=O)[C@@H](CC(C)C)NC(=O)[C@H](CCN)NC1=O)[C@@H](C)O [Lipopeptide F342] (HELM PEPTIDE1{[CCCCCC(=O)[*:2]].[Dab].T.[NC[C@H](N[*:1])C(=O)[*:2]].[Dab].[Dab].[dL].[Abu].[Dab].[Dab].T}$PEPTIDE1,PEPTIDE1,5:R3-11:R2$$$V2.0)",7.44 Log10 CFU/mL blood,7.29 Log10 CFU/mL blood and 7.60 Log10 CFU/mL blood,0.0179 Log10 CFU/mL blood and 0.33 Log10 CFU/mL blood,0.5 µg/mL,1 µg/mL,2 µg/mL,"0 (SQS 0 = no significant change (overall score, <1))",3/3,20 mg/kg,18.4 mg/kg,0.5 µg/mL,0.25 µg/mL,1 µg/mL,1 µg/mL,2 µg/mL,–,–,–,"Δlog10 CFU/mL blood (mean) [1]: 0.17 log10 CFU/mL blood; MIC, No Survanta ([2]; ATCC 27853): 1 µg/mL"
"CC[C@@H]1NC(=O)[C@@H](CC(C)C)NC(=O)[C@H](CCN)NC(=O)[C@@H](NC(=O)[C@H](CN)NC(=O)[C@@H](NC(=O)[C@H](CCN)NC(=O)c2ccccc2)[C@@H](C)O)CCNC(=O)[C@H]([C@@H](C)O)NC(=O)[C@H](CCN)NC(=O)[C@H](CCN)NC1=O [Lipopeptide F379] (HELM PEPTIDE1{[O=C(c1ccccc1)[*:2]].[Dab].T.[NC[C@H](N[*:1])C(=O)[*:2]].[Dab].[Dab].[dL].[Abu].[Dab].[Dab].T}$PEPTIDE1,PEPTIDE1,5:R3-11:R2$$$V2.0)",5.27 Log10 CFU/mL blood,5.36 Log10 CFU/mL blood and 5.17 Log10 CFU/mL blood,-2.58 Log10 CFU/mL blood and -2.77 Log10 CFU/mL blood,–,–,–,–,–,26 mg/kg,23 mg/kg and 21.3 mg/kg and 16 mg/kg,–,–,–,–,–,−2.67 log10 CFU/mL blood,–,–,MIC P. aeruginosa ATCC 27853 [2]: 1 µg/mL; MIC P. aeruginosa FADDI-PA038 ([3]; carbapenem-resistant isolate): 4 µg/mL; MIC P. aeruginosa FADDI-PA025 ([4]; MDR clinical isolate): >32 µg/mL; MIC K. pneumoniae FADDI-KP065 ([8]; carbapenem-resistant isolate): 2 µg/mL; MIC K. pneumoniae FADDI-KP032 ([9]; carbapenem-resistant isolate): 2 µg/mL; MIC A. baumannii FADDI-AB030 ([10]; carbapenem-resistant isolate): 2 µg/mL; MIC A. baumannii FADDI-AB034 ([11]; carbapenem-resistant isolate): 8 µg/mL; MIC A. baumannii ATCC 19606 [12]: 8 µg/mL
"CC[C@@H]1NC(=O)[C@@H](CC(C)C)NC(=O)[C@H](CCN)NC(=O)[C@@H](NC(=O)[C@H](CN)NC(=O)[C@@H](NC(=O)[C@H](CCN)NC(=O)c2ccc(F)cc2Cl)[C@@H](C)O)CCNC(=O)[C@H]([C@@H](C)O)NC(=O)[C@H](CCN)NC(=O)[C@H](CCN)NC1=O [Lipopeptide F449] (HELM PEPTIDE1{[O=C(c1ccc(F)cc1Cl)[*:2]].[Dab].T.[NC[C@H](N[*:1])C(=O)[*:2]].[Dab].[Dab].[dL].[Abu].[Dab].[Dab].T}$PEPTIDE1,PEPTIDE1,5:R3-11:R2$$$V2.0)",5.26 Log10 CFU/mL blood,5.17 Log10 CFU/mL blood and 5.18 Log10 CFU/mL blood and 5.44 Log10 CFU/mL blood,-2.41 Log10 CFU/mL blood and -2.40 Log10 CFU/mL blood and -2.14 Log10 CFU/mL blood,0.5 µg/mL,1 µg/mL,2 µg/mL,"0 (SQS 0 = no significant change (overall score, <1))",3/3,–,–,0.25 µg/mL,0.25 µg/mL,1 µg/mL,1 µg/mL,4 µg/mL,−2.32 log10 CFU/mL blood,–,–,–
"CC[C@H](C)CCCCC(=O)N[C@@H](CCN)C(=O)N[C@H](C(=O)N[C@@H](CCN)C(=O)N[C@H]1CCNC(=O)[C@H]([C@@H](C)O)NC(=O)[C@H](CCN)NC(=O)[C@H](CCN)NC(=O)[C@H](CC(C)C)NC(=O)[C@@H](CC(C)C)NC(=O)[C@H](CCN)NC1=O)[C@@H](C)O [colistin A] (HELM PEPTIDE1{[CC[C@H](C)CCCCC(=O)[*:2]].[Dab].T.[Dab].[Dab].[Dab].[dL].L.[Dab].[Dab].T}$PEPTIDE1,PEPTIDE1,5:R3-11:R2$$$V2.0)",–,–,–,–,–,–,–,–,–,–,–,–,–,–,–,–,"+5 (SQS + 5 = severe damage (overall score, >60))",86.7 µM,–
"CC[C@H](C)CCCCC(=O)N[C@@H](CCN)C(=O)N[C@H](C(=O)N[C@@H](CCN)C(=O)N[C@H]1CCNC(=O)[C@H]([C@@H](C)O)NC(=O)[C@H](CCN)NC(=O)[C@H](CCN)NC(=O)[C@H](CC(C)C)NC(=O)[C@@H](Cc2ccccc2)NC(=O)[C@H](CCN)NC1=O)[C@@H](C)O [polymyxin B1] (HELM PEPTIDE1{[CC[C@H](C)CCCCC(=O)[*:2]].[Dab].T.[Dab].[Dab].[Dab].[dF].L.[Dab].[Dab].T}$PEPTIDE1,PEPTIDE1,5:R3-11:R2$$$V2.0)",–,–,–,–,–,–,–,–,–,–,–,–,–,–,–,–,"+5 (SQS + 5 = severe damage (overall score, >60))",38.2 µM,–
